Measured values taken from US20210292330A1, “PYRROLIDINE-FUSED HETEROCYCLES” (Erasca, Inc., priority 2020, published 2021).

Target: T1, KRAS 4B G12C protein (Homo sapiens, UniProt P01116, G12C)
T1 construct: This protein contained 188 amino acids in total, including an N-terminal 6-Histidine tag; made in house; host or cells: E. coli BL21
Assay: In vitro covalent adduct formation (CAF) assay by LC-MS
Type: binding
Conditions: compound 10 μM, protein 5 μM, 22° C., percentage of protein bound by the compound
How it was run: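 Recombinant His-TEV-tagged KRAS 4B G12C (residues 1-169, E. coli) at 5 μM in Tris-buffered saline pH 7.4 was incubated with 10 μM compound (4% DMSO) at 22° C. for one hour, sampling over time. Intact-mass LC-MS free:adduct ratios gave % protein bound; duplicates.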

Q: For `C=CC(=O)N1CCN(c2nc(OC[C@@H]3CCCN3C)nc3c2CN(Cc2c(C)cccc2OC)C3)C[C@@H]1CC#N` [1-59], which “CAF (10 minutes/60 minutes) at 10 micromolar: 10 minutes” value (“CAF … at 10 micromolar: 10 minutes” for short) is on record?
A: 46%

Q: What about the “CAF (10 minutes/60 minutes) at 10 micromolar: 60 minutes” value (“CAF … at 10 micromolar: 60 minutes” below) of the same molecule?
A: 98%

Q: `C=CC(=O)N1CCN(c2nc(OC[C@@H]3CCCN3C)nc3c2CN(Cc2c(F)cccc2F)C3)[C@@H](C)C1` [1-14] was tested. Which “CAF … at 10 micromolar: 10 minutes” value did it give?
A: 0%

Q: What about the “CAF … at 10 micromolar: 60 minutes” value of the same molecule?
A: 8%

Q: How did the “CAF … at 10 micromolar: 10 minutes” value turn out when `C=CC(=O)N1CCN(c2nc(OCCN3CCOCC3)nc3c2CN(Cc2cc(O)ccc2C)C3)[C@@H](C)C1` [1-123] was run?
A: 0%

Q: What about the “CAF … at 10 micromolar: 60 minutes” value of the same molecule?
A: 2%

Q: With `C=CC(=O)N1CCN(c2nc(OC[C@@H]3CCCN3C)nc3c2CN(C2CCc4ccccc42)C3)[C@@H](C(N)=O)C1` (stereo partly drawn) [1-193] as the molecule, how does the “CAF … at 10 micromolar: 10 minutes” value read?
A: 7%

Q: What about the “CAF … at 10 micromolar: 60 minutes” value of the same molecule?
A: 31%

Q: Which results are given for `C=CC(=O)N1CCN(c2nc(OC[C@@H]3CCCN3C)nc3c2CN(Cc2c(Cl)cccc2OC)C3)C[C@@H]1CC#N` [1-38]?
A: CAF (10 minutes/60 minutes) at 10 micromolar: 10 minutes: 97%/ 97%; CAF (10 minutes/60 minutes) at 10 micromolar: 60 minutes: 97%/ 97%

Q: With `C=C(F)C(=O)N1CCN(c2nc(OC[C@@H]3CCCN3C)nc3c2CN(Cc2cc(NC)ncc2Cl)C3)C[C@@H]1CC#N` [1-340] as the molecule, how does the “CAF … at 10 micromolar: 10 minutes” value read?
A: 0%

Q: What about the “CAF … at 10 micromolar: 60 minutes” value of the same molecule?
A: 7%

Q: What does the source list for `C=CC(=O)N1CCN(c2nc(SC)nc3c2CN(C2CCc4ccccc42)C3)C[C@@H]1CC#N` (stereo partly drawn) [1-136]?
A: CAF (10 minutes/60 minutes) at 10 micromolar: 10 minutes: 16%; CAF (10 minutes/60 minutes) at 10 micromolar: 60 minutes: 56%

Q: `C=CC(=O)N1CCN(c2nc(OC[C@@H]3CCCN3C)nc3c2CN(Cc2nc(OC)ccc2Cl)C3)[C@@H](C)C1` [1-65] was tested. Which “CAF … at 10 micromolar: 10 minutes” value did it give?
A: 0%

Q: And the “CAF … at 10 micromolar: 60 minutes” value?
A: 2%

Q: `C=CC(=O)N1CCN(c2nc(OC[C@@H]3CCCN3C)nc3c2CN(C2CCc4ccccc42)C3)C[C@@H]1CO` (stereo partly drawn) [1-116] was tested. Which “CAF … at 10 micromolar: 10 minutes” value did it give?
A: 2%

Q: And the “CAF … at 10 micromolar: 60 minutes” value?
A: 17%

Q: How did the “CAF … at 10 micromolar: 10 minutes” value turn out when `C=CC(=O)N1CCN(c2nc(OC[C@@H]3CCCN3C)nc3c2CN(C2CCCc4ccccc42)C3)C[C@@H]1CC#N` (stereo partly drawn) [1-52] was run?
A: 6%

Q: What about the “CAF … at 10 micromolar: 60 minutes” value of the same molecule?
A: 91%

Q: For `C=CC(=O)N1CCN(c2nc(OC[C@@H]3CCCN3C)nc3c2CN(Cc2cc(C(F)(F)F)ccc2C)C3)[C@@H](C)C1` [1-15], which “CAF … at 10 micromolar: 10 minutes” value is on record?
A: 0%/ 0%

Q: What about the “CAF … at 10 micromolar: 60 minutes” value of the same molecule?
A: 0%/ 0%

Q: Which results are given for `C=CC(=O)N1CCN(c2nc(O[C@@H]3CN(C)C[C@H]3OC)nc3c2CN(Cc2cc(O)ccc2Cl)C3)C2COCC21` (stereo partly drawn) [1-336]?
A: CAF (10 minutes/60 minutes) at 10 micromolar: 10 minutes: 0%; CAF (10 minutes/60 minutes) at 10 micromolar: 60 minutes: 9%

Q: How did the “CAF … at 10 micromolar: 10 minutes” value turn out when `C=C(F)C(=O)N1CCN(c2nc(OC[C@@H]3CCCN3C)nc3c2CN(C2CCCc4cccc(Cl)c42)C3)C[C@@H]1CC#N` (stereo partly drawn) [1-126, 2-[(2S)-4-[6-(8-chloro-1,2,3,4-tetrahydronaphthalen-1-yl)-2-{[(2S)-1-methylpyrrolidin-2-yl]methoxy}-5H,7H-pyrrolo[3,4-d]pyrimidin-4-yl]-1-(2-fluoroprop-2-enoyl)piperazin-2-yl]acetonitrile] was run?
A: 53%

Q: And the “CAF … at 10 micromolar: 60 minutes” value?
A: 88%

Q: For `C=CC(=O)N1CCN(c2nc(OC[C@@H]3CCCN3C)nc3c2CN(Cc2c(Cl)cccc2OC)C3)C[C@@H]1CCO` [1-92], which “CAF … at 10 micromolar: 10 minutes” value is on record?
A: 0%/ 0%

Q: And the “CAF … at 10 micromolar: 60 minutes” value?
A: 0%/ 0%

Q: Which “CAF … at 10 micromolar: 10 minutes” value does the source give for `C=C(F)C(=O)N1CCN(c2nc(OC[C@@H]3CCCN3C)nc3c2CN(Cc2c(Cl)ccc(O)c2C)C3)C[C@@H]1CC#N` [1-311] here?
A: 93%

Q: And the “CAF … at 10 micromolar: 60 minutes” value?
A: 95%

Q: Which “CAF … at 10 micromolar: 10 minutes” value does the source give for `C=C(F)C(=O)N1CCN(c2nc(OC[C@@H]3CCCN3C)nc3c2CN(C2CCc4ccccc42)C3)C[C@@H]1CC#N` (stereo partly drawn) [1-139] here?
A: 0%

Q: What about the “CAF … at 10 micromolar: 60 minutes” value of the same molecule?
A: 5%

Q: For `C=CC(=O)N1CCN(c2nc(OC[C@@H]3CCCN3C)nc3c2CN(Cc2c(Cl)cccc2OC(F)F)C3)[C@@H](C)C1` [1-99], which “CAF … at 10 micromolar: 10 minutes” value is on record?
A: 0%

Q: What about the “CAF … at 10 micromolar: 60 minutes” value of the same molecule?
A: 6%

Q: For `C=CC(=O)N1CCN(c2nc(OC[C@@H]3CCCN3C)nc3c2CN(C2CCc4cccc(Cl)c42)C3)C[C@@H]1CC#N` (stereo partly drawn) [1-84], which “CAF … at 10 micromolar: 10 minutes” value is on record?
A: 98%

Q: What about the “CAF … at 10 micromolar: 60 minutes” value of the same molecule?
A: 99%

Q: Which results are given for `C=CC(=O)N1CCN(c2nc(OC[C@@H]3CCCN3C)nc3c2CN(Cc2cc(O)cc4ccccc24)C3)C[C@@H]1CC#N` [1-180]?
A: CAF (10 minutes/60 minutes) at 10 micromolar: 10 minutes: 94%; CAF (10 minutes/60 minutes) at 10 micromolar: 60 minutes: 96%

Q: `C=CC(=O)N1CCN(c2nc(OC[C@@H]3CCCN3C)nc3c2CN(Cc2ccccc2C(C)(C)C)C3)C[C@@H]1CC#N` [1-187] was tested. Which “CAF … at 10 micromolar: 10 minutes” value did it give?
A: 94%

Q: And the “CAF … at 10 micromolar: 60 minutes” value?
A: 95%

Q: Which “CAF … at 10 micromolar: 10 minutes” value does the source give for `C=CC(=O)N1C2COCC1CN(c1nc(OC[C@@H]3CCCN3C)nc3c1CN(Cc1cc(O)ccc1Cl)C3)C2` [1-124] here?
A: 21%

Q: What about the “CAF … at 10 micromolar: 60 minutes” value of the same molecule?
A: 67%

Q: `C=C(F)C(=O)N1CCN(c2nc(OC[C@@H]3CCCN3C)nc3c2CN(C2CCc4ccccc42)C3)C[C@@H]1CC#N` (stereo partly drawn) [1-138] was tested. Which “CAF … at 10 micromolar: 10 minutes” value did it give?
A: 38%

Q: What about the “CAF … at 10 micromolar: 60 minutes” value of the same molecule?
A: 54%

Q: Which results are given for `C=CC(=O)N1CCN(c2nc(OC[C@@H]3CCCN3C)nc3c2CN(C2CCc4ccccc42)C3)C[C@@H]1Cn1ccnc1` (stereo partly drawn) [1-219]?
A: CAF (10 minutes/60 minutes) at 10 micromolar: 10 minutes: 0%; CAF (10 minutes/60 minutes) at 10 micromolar: 60 minutes: 1%

Q: Which results are given for `C=CC(=O)N1CCN(c2nc(OC[C@@H]3CCCN3C)nc3c2CN(Cc2cccc4ocnc24)C3)C[C@@H]1CC#N` [1-204]?
A: CAF (10 minutes/60 minutes) at 10 micromolar: 10 minutes: 46%; CAF (10 minutes/60 minutes) at 10 micromolar: 60 minutes: 84%

Q: With `C=CC(=O)N1CCN(c2nc(OC[C@@H]3CCCN3C)nc3c2CN(Cc2c(CC)ccc(O)c2C)C3)C[C@@H]1CC#N` [1-255] as the molecule, how does the “CAF … at 10 micromolar: 10 minutes” value read?
A: 92%

Q: What about the “CAF … at 10 micromolar: 60 minutes” value of the same molecule?
A: 94%

Q: Which results are given for `C=CC(=O)N1CCN(c2nc(OC[C@@H]3CCCN3C)nc3c2CN(c2cccc4cccc(C)c24)C3)[C@@H](C)C1` [1-31]?
A: CAF (10 minutes/60 minutes) at 10 micromolar: 10 minutes: 0%; CAF (10 minutes/60 minutes) at 10 micromolar: 60 minutes: 6%

Q: `C=CC(=O)N1CCN(c2nc(OC[C@@H]3CCCN3C)nc3c2CN(c2cccc4cccc(C)c24)C3)C[C@@H]1CC#N` [1-17, 2-((S)-1-acryloyl-4-(6-(8-methylnaphthalen-1-yl)-2-(((S)-1-methylpyrrolidin-2-yl)methoxy)-6,7-dihydro-5H-pyrrolo[3,4-d]pyrimidin-4-yl)piperazin-2-yl)acetonitrile] was tested. Which “CAF … at 10 micromolar: 10 minutes” value did it give?
A: 90%

Q: And the “CAF … at 10 micromolar: 60 minutes” value?
A: 99%

Q: Which results are given for `C=CC(=O)N1CCN(c2nc(OC[C@@H]3CCCN3C)nc3c2CN(C2CCc4ccccc42)C3)C[C@@H]1Cc1ncc[nH]1` (stereo partly drawn) [1-224, 1-((2S)-2-((1H-imidazol-2-yl)methyl)-4-(6-(2,3-dihydro-1H-inden-1-yl)-2-(((S)-1-methylpyrrolidin-2-yl)methoxy)-6,7-dihydro-5H-pyrrolo[3,4-d]pyrimidin-4-yl)piperazin-1-yl)prop-2-en-1-one]?
A: CAF (10 minutes/60 minutes) at 10 micromolar: 10 minutes: 0%/ 0%; CAF (10 minutes/60 minutes) at 10 micromolar: 60 minutes: 0%/ 0%

Q: `C=CC(=O)N1CCN(c2nc(OC[C@@H]3CCCN3C)nc3c2CN(Cc2cc(F)ccc2C)C3)C[C@@H]1CC#N` [1-11] was tested. Which “CAF … at 10 micromolar: 10 minutes” value did it give?
A: 87%

Q: What about the “CAF … at 10 micromolar: 60 minutes” value of the same molecule?
A: 98%

Q: How did the “CAF … at 10 micromolar: 10 minutes” value turn out when `C=CC(=O)N1C2CCCC1CN(c1nc(OC[C@@H]3CCCN3C)nc3c1CN(Cc1cc(O)ccc1Cl)C3)C2` [1-149] was run?
A: 0%

Q: And the “CAF … at 10 micromolar: 60 minutes” value?
A: 8%

Q: How did the “CAF … at 10 micromolar: 10 minutes” value turn out when `C=CC(=O)N1CCN(c2nc(OC[C@@H]3CCCN3C)nc3c2CN(Cc2c(Cl)ccc4c2CCCO4)C3)C[C@@H]1CC#N` [1-158] was run?
A: 49%

Q: What about the “CAF … at 10 micromolar: 60 minutes” value of the same molecule?
A: 89%

Q: `C=CC(=O)N1CCN(c2nc(OC[C@@H]3CCCN3C)nc3c2CN(Cc2c(Cl)cccc2OC)C3)C[C@@H]1CO` [1-107] was tested. Which “CAF … at 10 micromolar: 10 minutes” value did it give?
A: 0%

Q: And the “CAF … at 10 micromolar: 60 minutes” value?
A: 3%

Q: With `C=CC(=O)N1CC2CC(=O)CC1CN2c1nc(OC)nc2c1CN(C1CCc3ccccc31)C2` (stereo not drawn) [1-250] as the molecule, how does the “CAF … at 10 micromolar: 10 minutes” value read?
A: 0%/ 0%

Q: What about the “CAF … at 10 micromolar: 60 minutes” value of the same molecule?
A: 0%/ 0%

Q: Which “CAF … at 10 micromolar: 10 minutes” value does the source give for `C=CC(=O)N1CCN(c2nc(OC[C@@H]3CCCN3C)nc3c2CN(Cc2cc(OC)ccc2Cl)C3)C[C@@H]1CC#N` [1-68] here?
A: 90%

Q: And the “CAF … at 10 micromolar: 60 minutes” value?
A: 97%

Q: For `C=CC(=O)N1CCN(c2nc(Oc3cccnc3C3CC3)nc3c2CN(C2CCc4ccccc42)C3)C[C@@H]1CC#N` (stereo partly drawn) [1-173], which “CAF … at 10 micromolar: 10 minutes” value is on record?
A: 6%

Q: What about the “CAF … at 10 micromolar: 60 minutes” value of the same molecule?
A: 24%

Q: How did the “CAF … at 10 micromolar: 10 minutes” value turn out when `C=CC(=O)N1CCN(c2nc(OC[C@@H]3CCCN3C)nc3c2CN(Cc2nc(N)cc(C)c2C(F)(F)F)C3)C[C@@H]1CC#N` [1-335] was run?
A: 92%

Q: And the “CAF … at 10 micromolar: 60 minutes” value?
A: 95%
